In US9586986B2, “Substituted 7-deazapurine ribonucleosides for therapeutic uses” (Institute of Organic Chemistry and Biochemistry ASCR, v.v.i., priority 2014, dated 2017) one finds IC50, EC50 and CC50 data, which are given here for ten molecules.

Holding throughout (type): cell-based
The subject of data set [1] is CEM-DNR-bulk. In words: Cytostatic/cytotoxic MTT assay, CEM-DNR-bulk. The settings on record: Homo sapiens, 72 h, read-out: MTT, IC50 CEM-DNR-bulk. An outline of the steps:
(§1)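 Human cancer lines, including daunorubicin-resistant CEM-DNR (mrp-1/mdr-1 overexpressing) and paclitaxel-resistant K562-TAX (mdr-1), seeded 25,000-30,000 cells/well, pre-incubated 24 h, then treated in duplicate with four-fold dilutions for 72 h at 37° C, 5% CO2. MTT read-out at 540 nm; IC50 from dose-response curves.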
A general note: Tetrazolium dyes change colour on reduction, which living cells bring about.

Data set [2] concerns HCT116. In words: Cytostatic/cytotoxic MTT assay, HCT116. As to conditions: Homo sapiens, read-out: MTT, IC50 HCT116. An outline of the steps: as §1
The test system of data set [3] is HepG2. In words: XTT cytotoxicity assay, HepG2. The settings on record: Homo sapiens, read-out: XTT, IC50 HepG2. An outline of the steps:
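HepG2 cells seeded at 10,000/well, compounds added after 24 h and incubated 72 h at 37 °C, 5% CO2. Viability by XTT reduction (1 mg/mL XTT plus electron coupler), absorbance at 495 nm after 2 h; IC50 by non-linear regression.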

Data set [4] concerns HeLa S3. In words: XTT cytotoxicity assay, HeLa S3. As to conditions: Homo sapiens, read-out: XTT, IC50 HeLa S3. The gist of the method:
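Cells seeded at 10,000 per well, compounds added after 24 h and incubated 72 h, then XTT (with N-methyl dibenzopyrazine methyl sulfate) for 2 h; absorbance at 495 nm. IC50 by non-linear regression.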

The test system of data set [5] is HCV subtype 1B replicon in Huh-7 cells. The data set is described as follows: HCV sub-genomic reporter replicon assay, subtype 1B. As to conditions: Hepatitis C virus. The method, then: (§2) Compounds were also tested in Huh-7 cells harboring sub-genomic reporter replicons derived from HCV subtypes 1B and 2A (ref.: Stuyver, L. J.; Whitaker, T.; McBrayer, T. R.; Hernandez-Santiago, B. I.; Lostia, S.; Tharnish, P. M.; Ramesh, M.; Chu, C. K.; Jordan, R.; Shi, J. X.; Rachakonda, S.; Watanabe, K. A.; Otto, M. J.; Schinazi, R. F. Antimicrob. Agents Chemother. 2003, 47, 244-254).
(In general: A replicon is a self-replicating genome or part of one, used to study replication in cells.)

For data set [6], the system named is Huh-7 cells harboring replicon 1B. The data set is described as follows: Cytotoxicity in replicon 1B cells. The settings on record: HCV subtype 1B replicon. The protocol:
as §2

Setting [7] is: Huh-7 cells, HCV subtype 1B replicon, read-out: Replicon 1B EC50.
[8] abbreviates: Huh-7, read-out: Replicon 1B EC50.

Like-named read-outs stand apart in the source and are kept apart here.

What is called IC50 is the midpoint of a concentration-inhibition curve. The EC50 is the midpoint of the concentration-response curve. By CC50 is commonly meant the concentration that lowers cell viability or growth by half. The low end stands for greater toxicity to the cells, the high end for lower toxicity to the cells.

Turning to `Cc1ncnc2c1c(-c1cccs1)cn2[C@@H]1O[C@H](CO)[C@@H](O)[C@H]1O` [Compound 5c, 4-Methyl-7-(β-D-ribofuranosyl)-5-(thiophen-2-yl)-7H-pyrrolo[2,3-d]pyrimidine], the IC50 in data set [1] (daunorubicin resistant subline) is more than 20 µM; in data set [2] (HCT-116, 72 h incubation), more than 20 µM; in data set [3] (HepG2, 72 h incubation), more than 15 µM; in data set [4] (HeLa S3, 72 h incubation) it was more than 15 µM. Besides, in data set [5] (setting [7]), the EC50 is 6.67 µM. The same molecule showed a CC50 in data set [6] of more than 44 µM.

Regarding `Cc1ncnc2c1c(-c1ccsc1)cn2[C@@H]1O[C@H](CO)[C@@H](O)[C@H]1O` [Compound 5d, 4-Methyl-7-(β-D-ribofuranosyl)-5-(thiophen-3-yl)-7H-pyrrolo[2,3-d]pyrimidine], the IC50 stood at 8.56 µM in data set [1] (daunorubicin resistant subline); 0.46 µM in data set [2] (HCT-116, 72 h incubation); 4.72 µM in data set [3] (HepG2, 72 h incubation); 14.3 µM in data set [4] (HeLa S3, 72 h incubation). The EC50 in data set [5] (setting [7]) was determined as 4.47 µM. For the same molecule, in data set [6], the CC50 was more than 44 µM.

For `Cc1ncnc2c1c(-c1ccccc1)cn2[C@@H]1O[C@H](CO)[C@@H](O)[C@H]1O` [Compound 5e, 4-Methyl-5-phenyl-7-(β-D-ribofuranosyl)-7H-pyrrolo[2,3-d]pyrimidine], the IC50 is more than 20 µM in data set [1] (daunorubicin resistant subline); more than 100 µM in data set [2] (HCT-116, 72 h incubation); more than 20 µM in data set [3] (HepG2, 72 h incubation); more than 20 µM in data set [4] (HeLa S3, 72 h incubation). Besides, the half-maximal effective concentration (EC50) in data set [5] (setting [7]) amounted to 34.8 µM. This molecule came in with a CC50 in data set [6] of more than 44 µM.

In the case of `Cc1ncnc2c1c(-c1cc3ccccc3o1)cn2[C@@H]1O[C@H](CO)[C@@H](O)[C@H]1O` [Compound 5f, 5-(Benzofuran-2-yl)-4-methyl-7-(β-D-ribofuranosyl)-7H-pyrrolo[2,3-d]pyrimidine], the IC50 in data set [1] (daunorubicin resistant subline) is more than 20 µM; in data set [2] (HCT-116, 72 h incubation), more than 20 µM; in data set [3] (HepG2, 72 h incubation), more than 20 µM; in data set [4] (HeLa S3, 72 h incubation), more than 20 µM. For the same molecule, the EC50 in data set [5] (setting [7]) was determined as 6.76 µM. Besides, the CC50 in data set [6] is more than 44 µM.

Consider `C#Cc1cn([C@@H]2O[C@H](CO)[C@@H](O)[C@H]2O)c2ncnc(C)c12` [Compound 5g, 5-Ethynyl-4-methyl-7-(β-D-ribofuranosyl)-7H-pyrrolo[2,3-d]pyrimidine], for which the IC50 in data set [1] (daunorubicin resistant subline) is 0.16 µM; in data set [2] (HCT-116, 72 h incubation) it was more than 20 µM; in data set [3] (HepG2, 72 h incubation) it was 0.29 µM; in data set [4] (HeLa S3, 72 h incubation) it was 14.7 µM. Further, the EC50 in data set [5] (setting [7]) amounted to 0.23 µM. The molecule further had a CC50 in data set [6] of more than 44 µM.

With `COc1ncnc2c1ccn2[C@@H]1O[C@H](CO)[C@@H](O)[C@H]1O` [RC1, reference compound], the IC50 is more than 20 µM in data set [1] (daunorubicin resistant subline); more than 20 µM in data set [2] (HCT-116, 72 h incubation); more than 20 µM in data set [3] (HepG2, 72 h incubation); more than 20 µM in data set [4] (HeLa S3, 72 h incubation). For the same molecule, in data set [5] (setting [7]), the EC50 was determined as 43.2 µM. The CC50 in data set [6] was more than 44 µM.

As for `CSc1ncnc2c1ccn2[C@@H]1O[C@H](CO)[C@@H](O)[C@H]1O` [RC2, reference compound], the IC50 in data set [1] was 3.61 µM; in data set [2] (HCT-116, 72 h), more than 20 µM; in data set [3] (HepG2, 72 h) it was more than 20 µM; in data set [4] (HeLa S3, 72 h) it was 11.9 µM. Further, in data set [5] (setting [8]), the EC50 amounted to 29.9 µM. The CC50 in data set [6] was more than 44 µM.

As to `CNc1ncnc2c1ccn2[C@@H]1O[C@H](CO)[C@@H](O)[C@H]1O` [RC3, reference compound], the IC50 in data set [1] (daunorubicin resistant subline) is 4.89 µM; in data set [2] (HCT-116, 72 h incubation) it was more than 20 µM; in data set [3] (HepG2, 72 h incubation), more than 20 µM; in data set [4] (HeLa S3, 72 h incubation), more than 20 µM. The EC50 in data set [5] (setting [7]) was 0.82 µM. In data set [6], this molecule yielded a CC50 of more than 44 µM.

Regarding `CN(C)c1ncnc2c1ccn2[C@@H]1O[C@H](CO)[C@@H](O)[C@H]1O` [RC4, reference compound], the IC50 in data set [1] (daunorubicin resistant subline) stood at 2.6 µM; in data set [2] (HCT-116, 72 h incubation) it was 18.4 µM; in data set [3] (HepG2, 72 h incubation) it was 1.81 µM; in data set [4] (HeLa S3, 72 h incubation) it was 10.6 µM. Further, the half-maximal effective concentration (EC50) in data set [5] (setting [7]) is 0.27 µM. In addition, the CC50 in data set [6] was more than 44 µM.

On to `Cc1ncnc2c1ccn2[C@@H]1O[C@H](CO)[C@@H](O)[C@H]1O` [RC5, 4-Methyl-7-(β-D-ribofuranosyl)-7H-pyrrolo[2,3-d]pyrimidine, reference compound], for which the 50% inhibitory concentration (IC50) in data set [1] worked out at 0.05 µM; in data set [2] (HCT-116, 72 h), 0.03 µM; in data set [3] (HepG2, 72 h), 0.06 µM; in data set [4] (HeLa S3, 72 h) it was 0.02 µM. For the same molecule, in data set [5] (setting [8]), the EC50 was 0.02 µM. Besides, the CC50 in data set [6] is 0.23 µM.
